Patent EP3375430A1, “FRAGRANCE COMPOSITIONS” (Takasago International Corporation, priority 2017, dated 2018)

What was measured:
[1] = Headspace concentration of fragrance ingredients over blotter (thermal desorption GC-MS); format: physicochemical
Method: The headspace concentration of individual ingredients of fragrance TAK, as formulated in either a conventional EdT (EdT1) or a fragrance composition of the invention (C1), was assessed by the method described below.
A 10 cm length was cut from a standard perfumers' blotter. A sample of 100µL volume was applied to the upper surface of the blotter with a syringe. The blotter was placed on a hot plate thermostatted at 32°C and left to equilibrate for 5 minutes. Two desorption tubes (6cm length 4mm internal diameter) each containing 2 cm length of Tenax TA adsorbent were fitted to the glass part of a headspace apparatus shown in figure 9. The glass part was fitted over the blotter, a metering pump was connected to one of the desorption tubes and air was drawn through the apparatus flushing the headspace over the blotter at a rate of 17mL/min. Sampling continued for about 16.5 minutes until 280mL of air had been extracted. Then the outlet desorption tube was analysed by gas chromatography as described below. The glass part was removed from the blotter which was left on the hotplate until the next sampling time when two fresh desorption tubes were fitted and the extraction procedure repeated for a further 280mL of extracted headspace.
• Initial Temp: 50°C • Initial Time: 5 min • Rate: 3°C /min • Final Temp: 250°C • Final Time: 20 min • Run Time: 91.67 min
• Column: HP-5MS 30m * 0.25mm * 0.25µm • Gas: Helium • Constant pressure 12.675 psi
• Initial Temp: -30°C • Equilibration Time: 0.05 min • Initial Time: 0.00 min • Rate 12°C / min • End Temp: 260°C • Hold Time: 10 min
Temperature program • Initial Temp: 35°C • Delay Time: 0.30 min • Initial Time: 0.00 min • Rate: 30°C / min • End Temp: 250°C • Hold Time: 5.00 min
TDU Settings • Transfer Temp: 250°C • Transfer Temp Mode: Fixed • Desorption Mode: splitless • Sample mode: Retain tube - standby cooling • Standby Temp: 50°C
Detector MS • MS 5973 • Mass range: 35 to 350 • Threshold: 150 • Mass Quad: 150°C • Mass Source: 230°C
Following the procedure of example 2, the headspace concentration of representative ingredients of fragrance COM1 was determined. COM1 was dosed at 5 and 20 % either in control EdT3 and EdT4 or in compositions of the invention C7 and C8, as shown in table 10.
The headspace concentration of individual ingredients of fragrance TAK (see Table 1), as formulated in either a conventional EdT (EdT1) or fragrance compositions of the invention (C14, C15), was assessed by the method described in example 2.

[2] = Amount of fragrance ingredients retained on paper blotter after evaporation (ethanol extraction, GC-MS); format: physicochemical
Procedure, shortened: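 100 µL of fragrance formulation applied to paper blotters kept at 32°C open to air; at each time three blotters extracted 1 h in ethanol with methyl decanoate internal standard and analysed by GC-MS (HP-5MS, 50–280°C). Amounts averaged over triplicates and expressed as percent of time-zero level.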

CC(C=O)Cc1ccc(C(C)(C)C)cc1 (stereo not shown) [Lilial™, 3-(4-tert-Butylphenyl)-2-methylpropanal]
headspace concentration in composition C1 compared to control EdT1 ([1]; fragrance TAK, T0 + 8h, Figure 4): significantly greater
amount of fragrance ingredient retained on blotter (percentage of the initial amount) ([2]; Table 3, fragrance TAK in C1, 15 min, 32°C): 78%
amount of fragrance ingredient retained on blotter (percentage of the initial amount) ([2]; Table 3, fragrance TAK in C1, 60 min, 32°C): 79%
amount of fragrance ingredient retained on blotter (percentage of the initial amount) ([2]; Table 3, fragrance TAK in C1, 120 min, 32°C): 75%
amount of fragrance ingredient retained on blotter (percentage of the initial amount) ([2]; Table 3, fragrance TAK in C1, 240 min, 32°C): 72%
amount of fragrance ingredient retained on blotter (percentage of the initial amount) ([2]; Table 3, fragrance TAK in C1, 480 min, 32°C): 51%
amount of fragrance ingredient retained on blotter (percentage of the initial amount) ([2]; Table 3, fragrance TAK in EdT1, 15 min, 32°C): 91%
amount of fragrance ingredient retained on blotter (percentage of the initial amount) ([2]; Table 3, fragrance TAK in EdT1, 60 min, 32°C): 84%
amount of fragrance ingredient retained on blotter (percentage of the initial amount) ([2]; Table 3, fragrance TAK in EdT1, 120 min, 32°C): 75%
amount of fragrance ingredient retained on blotter (percentage of the initial amount) ([2]; Table 3, fragrance TAK in EdT1, 240 min, 32°C): 65%
amount of fragrance ingredient retained on blotter (percentage of the initial amount) ([2]; Table 3, fragrance TAK in EdT1, 480 min, 32°C): 23%
amount of fragrance ingredient retained on blotter (percentage of the initial amount) ([2]; Table 3, fragrance TAK in EdT1 or C1, T0, set at 100% (normalisation)): 100%
amount of fragrance ingredient retained on blotter (percentage of the initial amount) ([2]; Table 4, fragrance TAK in C2, 15 min, 32°C): 98%
amount of fragrance ingredient retained on blotter (percentage of the initial amount) ([2]; Table 4, fragrance TAK in C2, 480 min, 32°C): 49%
amount of fragrance ingredient retained on blotter (percentage of the initial amount) ([2]; Table 4, fragrance TAK in EdT1, 15 min, 32°C): 87%
amount of fragrance ingredient retained on blotter (percentage of the initial amount) ([2]; Table 4, fragrance TAK in EdT1, 480 min, 32°C): 18%
amount of fragrance ingredient retained on blotter (percentage of the initial amount) ([2]; Table 4, fragrance TAK in EdT1 or C2, T0, set at 100% (normalisation)): 100%
amount of fragrance ingredient retained on blotter (percentage of the initial amount) ([2]; Table 5, fragrance TAK in C3, 15 min, 32°C): 88%
amount of fragrance ingredient retained on blotter (percentage of the initial amount) ([2]; Table 5, fragrance TAK in C3, 60 min, 32°C): 92%
amount of fragrance ingredient retained on blotter (percentage of the initial amount) ([2]; Table 5, fragrance TAK in C3, 120 min, 32°C): 90%
amount of fragrance ingredient retained on blotter (percentage of the initial amount) ([2]; Table 5, fragrance TAK in C3, 240 min, 32°C): 87%
amount of fragrance ingredient retained on blotter (percentage of the initial amount) ([2]; Table 5, fragrance TAK in C3, 480 min, 32°C): 60%
amount of fragrance ingredient retained on blotter (percentage of the initial amount) ([2]; Table 5, fragrance TAK in C3, 1440 min, 32°C): 45%
amount of fragrance ingredient retained on blotter (percentage of the initial amount) ([2]; Table 5, fragrance TAK in EdT1, 15 min, 32°C): 91%
amount of fragrance ingredient retained on blotter (percentage of the initial amount) ([2]; Table 5, fragrance TAK in EdT1, 60 min, 32°C): 84%
amount of fragrance ingredient retained on blotter (percentage of the initial amount) ([2]; Table 5, fragrance TAK in EdT1, 120 min, 32°C): 75%
amount of fragrance ingredient retained on blotter (percentage of the initial amount) ([2]; Table 5, fragrance TAK in EdT1, 240 min, 32°C): 65%
amount of fragrance ingredient retained on blotter (percentage of the initial amount) ([2]; Table 5, fragrance TAK in EdT1, 480 min, 32°C): 23%
amount of fragrance ingredient retained on blotter (percentage of the initial amount) ([2]; Table 5, fragrance TAK in EdT1, 1440 min, 32°C): 6%
amount of fragrance ingredient retained on blotter (percentage of the initial amount) ([2]; Table 5, fragrance TAK in EdT1 or C3, T0, set at 100% (normalisation)): 100%
amount of fragrance ingredient retained on blotter (percentage of the initial amount) ([2]; Table 6, fragrance TAK in C4, 15 min, 32°C): 99%
amount of fragrance ingredient retained on blotter (percentage of the initial amount) ([2]; Table 6, fragrance TAK in C4, 60 min, 32°C): 92%
amount of fragrance ingredient retained on blotter (percentage of the initial amount) ([2]; Table 6, fragrance TAK in C4, 120 min, 32°C): 88%
amount of fragrance ingredient retained on blotter (percentage of the initial amount) ([2]; Table 6, fragrance TAK in C4, 240 min, 32°C): 87%
amount of fragrance ingredient retained on blotter (percentage of the initial amount) ([2]; Table 6, fragrance TAK in C4, 480 min, 32°C): 52%
amount of fragrance ingredient retained on blotter (percentage of the initial amount) ([2]; Table 6, fragrance TAK in EdT1, 15 min, 32°C): 91%
amount of fragrance ingredient retained on blotter (percentage of the initial amount) ([2]; Table 6, fragrance TAK in EdT1, 60 min, 32°C): 84%
amount of fragrance ingredient retained on blotter (percentage of the initial amount) ([2]; Table 6, fragrance TAK in EdT1, 120 min, 32°C): 75%
amount of fragrance ingredient retained on blotter (percentage of the initial amount) ([2]; Table 6, fragrance TAK in EdT1, 240 min, 32°C): 65%
amount of fragrance ingredient retained on blotter (percentage of the initial amount) ([2]; Table 6, fragrance TAK in EdT1, 480 min, 32°C): 23%
amount of fragrance ingredient retained on blotter (percentage of the initial amount) ([2]; Table 6, fragrance TAK in EdT1 or C4, T0, set at 100% (normalisation)): 100%

CC/C=C(\C)C(O)CCCCC (stereo not shown) [Undecavertol™, (E)-4-methyldec-3-en-5-ol]
presence in the headspace of composition C8 compared to control EdT4 ([1]; COM1 dosed at 20 wt%, after 8 hours): more present
amount of fragrance ingredient retained on blotter (percentage of the initial amount) ([2]; Table 9, fragrance COM1 in C5, T0 + 15 min): 84.6%
amount of fragrance ingredient retained on blotter (percentage of the initial amount) ([2]; Table 9, fragrance COM1 in C5, T0 + 480 min): 19.1%
amount of fragrance ingredient retained on blotter (percentage of the initial amount) ([2]; Table 9, fragrance COM1 in C5, T0 +1440 min): 2.62%
amount of fragrance ingredient retained on blotter (percentage of the initial amount) ([2]; Table 9, fragrance COM1 in C6, T0 + 15 min): 73.2%
amount of fragrance ingredient retained on blotter (percentage of the initial amount) ([2]; Table 9, fragrance COM1 in C6, T0 + 480 min): 14%
amount of fragrance ingredient retained on blotter (percentage of the initial amount) ([2]; Table 9, fragrance COM1 in C6, T0 +1440 min): 3.1%
amount of fragrance ingredient retained on blotter (percentage of the initial amount) ([2]; Table 9, fragrance COM1 in EdT2, C5 or C6, T0, set at 100% (normalisation)): 100%
amount of fragrance ingredient retained on blotter (percentage of the initial amount) ([2]; Table 9, fragrance COM1 in EdT2, T0 + 15 min): 75.7%
amount of fragrance ingredient retained on blotter (percentage of the initial amount) ([2]; Table 9, fragrance COM1 in EdT2, T0 + 480 min): 8.41%
amount of fragrance ingredient retained on blotter (percentage of the initial amount) ([2]; Table 9, fragrance COM1 in EdT2, T0 +1440 min): 4.93%
